Common to all, as to assay type: in vivo
For assay [1], the system named is Alopecurus myosuroides (ALOMY). In words: Example B post-emergence herbicidal activity, glasshouse pot test. The settings on record: 312 h, rate 250 g/ha, evaluated after 13 days, scale 0-100, read-out: Post-emergence activity ALOMY (100=total damage to plant; 0=no damage to plant). Summed up:
(§1)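 Seeds sown in standard soil, grown 8 days in glasshouse (24/16 °C day/night, 14 h light, 65% humidity), then sprayed post-emergence with compound in acetone/water (50:50) containing 0.5% Tween 20. Damage scored visually after 13 days on a 0–100 scale (100 = total damage).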

The subject of assay [2] is Avena fatua (AVEFA). Described as above. The settings on record: 312 h, rate 250 g/ha, evaluated after 13 days, scale 0-100, read-out: Post-emergence activity AVEFA (100=total damage to plant; 0=no damage to plant). Summed up:
as §1

Assay [3] concerns Lolium perenne (LOLPE). Described as above. Conditions: 312 h, rate 250 g/ha, evaluated after 13 days, scale 0-100, read-out: Post-emergence activity LOLPE (100=total damage to plant; 0=no damage to plant). The method, boiled down:
as §1

Assay [4] concerns Echinochloa crus-galli (ECHCG). Described as above. The settings on record: 312 h, rate 250 g/ha, evaluated after 13 days, scale 0-100, read-out: Post-emergence activity ECHCG (100=total damage to plant; 0=no damage to plant). The method, boiled down:
as §1

Assay [5] has as its system Alopecurus myosuroides (ALOMY). In words: Example B pre-emergence herbicidal activity, glasshouse pot test. The settings on record: 312 h, rate 250 g/ha, evaluated after 13 days, scale 0-100, read-out: Pre-emergence activity ALOMY (100=total damage to plant; 0=no damage to plant). The method, boiled down:
(§2)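 Pots were sprayed one day after sowing with the active ingredient in acetone/water (50:50) containing 0.5% Tween 20. Plants were kept in a glasshouse at 24/16° C day/night, 14 h light, 65% humidity. Damage was scored 13 days later (0 none to 100 total).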

The test system of assay [6] is Avena fatua (AVEFA). The description is as above. Conditions: 312 h, rate 250 g/ha, evaluated after 13 days, scale 0-100, read-out: Pre-emergence activity AVEFA (100=total damage to plant; 0=no damage to plant). The method, boiled down: as §2
Assay [7] has as its system Lolium perenne (LOLPE). Described as above. Conditions: 312 h, rate 250 g/ha, evaluated after 13 days, scale 0-100, read-out: Pre-emergence activity LOLPE (100=total damage to plant; 0=no damage to plant). The method, boiled down:
as §2

Assay [8] concerns Echinochloa crus-galli (ECHCG). The description is as above. Conditions: 312 h, rate 250 g/ha, evaluated after 13 days, scale 0-100, read-out: Pre-emergence activity ECHCG (100=total damage to plant; 0=no damage to plant). The method, boiled down:
as §2

Molecules are shown by their SMILES.

In patent US8741806B2, “Herbicides” (Syngenta Limited, priority 2009, dated 2014) one finds pest or weed control data, which are given here for 14 compounds.

Take `CCc1ccc(-c2ccc(Cl)cc2C)cc1C1=C(O)CC(C)(C)CC1=O` [Compound T21]: the pest or weed control at 250 g/ha was 0% in assay [1]; 0% with Avena fatua (AVEFA) [2]; 70% with Lolium perenne (LOLPE) [3]; 80% in assay [4]; 0% in assay [5]; 30% with Avena fatua (AVEFA) [6]. The pest or weed control at 250 g/ha worked out at 50% in the assay on Lolium perenne (LOLPE) [7] and 40% in assay [8].
Regarding `CCc1ccc(-c2ccc(Cl)cc2Cl)cc1C1=C(O)CCCC1=O` [Compound T44], the pest or weed control at 250 g/ha in assay [1] worked out at 30%; in the assay on Avena fatua (AVEFA) [2] it was 0%; in the assay on Lolium perenne (LOLPE) [3], 80%; in assay [4], 100%; in assay [5], 0%; in the assay with Avena fatua (AVEFA) [6], 0%. The pest or weed control at 250 g/ha in the assay with Lolium perenne (LOLPE) [7] worked out at 80%; in assay [8], 90%.
As to `CCc1ccc(-c2ccc(Cl)c(F)c2)cc1C1=C(O)C(C)(C)CC(C)(C)C1=O` [Compound T64], the pest or weed control at 250 g/ha is 50% in assay [1]; 80% with Avena fatua (AVEFA) [2]; 80% in the assay with Lolium perenne (LOLPE) [3]; 100% in assay [4]; 30% in assay [5]; 10% in the assay on Avena fatua (AVEFA) [6]. The pest or weed control at 250 g/ha with Lolium perenne (LOLPE) [7] stood at 60%; in assay [8], 70%.
For `CCc1ccc(-c2ccc(Cl)nc2Cl)cc1C1=C(O)C(C)(C)CCC1=O` [Compound T12], the pest or weed control at 250 g/ha came to 0% in assay [1]; 0% in the assay on Avena fatua (AVEFA) [2]; 0% in the assay with Lolium perenne (LOLPE) [3]; 90% in assay [4]; 0% in assay [5]; 0% in the assay on Avena fatua (AVEFA) [6]. The pest or weed control at 250 g/ha (with Lolium perenne (LOLPE) [7]; in assay [8]) was 0% in each case.
Consider `CCc1ccc(-c2ccc(Cl)cc2Cl)cc1C1=C(O)C(C)(C)CCC1=O` [Compound T18], for which the pest or weed control at 250 g/ha in assay [1] amounted to 30%; in the assay on Avena fatua (AVEFA) [2], 40%; in the assay with Lolium perenne (LOLPE) [3], 80%; in assay [4], 90%; in assay [5], 30%; in the assay on Avena fatua (AVEFA) [6], 20%. Besides, the pest or weed control at 250 g/ha in the assay on Lolium perenne (LOLPE) [7] turned out to be 80%; in assay [8] it was 90%.
For the compound `CCc1ccc(-c2ccc(Cl)c(OC)c2)cc1C1=C(O)C(C)(C)CCC1=O` [Compound T6], the pest or weed control at 250 g/ha in assay [1] worked out at 0%; with Avena fatua (AVEFA) [2], 40%; in the assay on Lolium perenne (LOLPE) [3] it was 60%; in assay [4], 100%; in assay [5] it was 0%; in the assay on Avena fatua (AVEFA) [6], 0%. The pest or weed control at 250 g/ha amounted to 0% in the assay on Lolium perenne (LOLPE) [7] and 80% in assay [8].
Take `CCc1ccc(-c2ccc(Cl)c(F)c2)cc1C1=C(O)C(C)(C)CCC1=O` [Compound T10]: the pest or weed control at 250 g/ha was determined as 70% in assay [1]; 90% with Avena fatua (AVEFA) [2]; 90% with Lolium perenne (LOLPE) [3]; 100% in assay [4]; 0% in assay [5]; 20% with Avena fatua (AVEFA) [6]. Besides, the pest or weed control at 250 g/ha in the assay on Lolium perenne (LOLPE) [7] turned out to be 90%; in assay [8], 100%.
Regarding `CCc1ccc(-c2ccc(Cl)c(OC)c2)cc1C1=C(O)CCCC1=O` [Compound T50], the pest or weed control at 250 g/ha in assay [1] was 70%; with Avena fatua (AVEFA) [2], 80%; in the assay with Lolium perenne (LOLPE) [3], 80%; in assay [4], 100%; in assay [5] it was 20%; in the assay with Avena fatua (AVEFA) [6], 40%. Also, the pest or weed control at 250 g/ha in the assay with Lolium perenne (LOLPE) [7] amounted to 0%; in assay [8] it was 90%.
As for `CCc1ccc(-c2ccc(Cl)c(Cl)c2)cc1C1=C(O)CCCC1=O` [Compound T49], the pest or weed control at 250 g/ha in assay [1] worked out at 50%; in the assay with Avena fatua (AVEFA) [2], 80%; in the assay with Lolium perenne (LOLPE) [3], 90%; in assay [4] it was 100%; in assay [5], 20%; with Avena fatua (AVEFA) [6], 60%. For the same compound, the pest or weed control at 250 g/ha (with Lolium perenne (LOLPE) [7]; in assay [8]) was 100% throughout.
As to `CCc1ccc(-c2c(F)cc(Cl)cc2F)cc1C1=C(O)CCCC1=O` [Compound T58], the pest or weed control at 250 g/ha was 60% in assay [1]; 90% in the assay with Avena fatua (AVEFA) [2]; 90% with Lolium perenne (LOLPE) [3]; 100% in assay [4]; 20% in assay [5]; 0% in the assay with Avena fatua (AVEFA) [6]. Also, the pest or weed control at 250 g/ha stood at 70% in the assay on Lolium perenne (LOLPE) [7] and 90% in assay [8].
Regarding `CCc1ccc(-c2ccc(Cl)nc2)cc1C1=C(O)C(C)(C)CCC1=O` [Compound T11], the pest or weed control at 250 g/ha in assay [1] is 60%; in the assay with Avena fatua (AVEFA) [2], 60%; in the assay with Lolium perenne (LOLPE) [3], 60%; in assay [4] it was 90%; in assay [5] it was 0%; in the assay with Avena fatua (AVEFA) [6] it was 0%. Further, the pest or weed control at 250 g/ha was 0% in the assay with Lolium perenne (LOLPE) [7] and 20% in assay [8].
In the case of `CCc1ccc(-c2ccc(Cl)c(Cl)c2)cc1C1=C(O)CC(C)(C)CC1=O` [Compound T22], the pest or weed control at 250 g/ha in assay [1] came to 70%; with Avena fatua (AVEFA) [2], 40%; in the assay on Lolium perenne (LOLPE) [3], 100%; in assay [4], 100%; in assay [5], 20%; in the assay on Avena fatua (AVEFA) [6], 40%. For the same compound, the pest or weed control at 250 g/ha is 80% in the assay with Lolium perenne (LOLPE) [7] and 90% in assay [8].
As to `CCc1ccc(-c2ccc(Cl)cc2F)cc1C1=C(O)C(C)(C)CC(C)(C)C1=O` [Compound T60], the pest or weed control at 250 g/ha in assay [1] stood at 10%; in the assay with Avena fatua (AVEFA) [2] it was 30%; in the assay on Lolium perenne (LOLPE) [3], 80%; in assay [4], 100%; in assay [5], 0%; with Avena fatua (AVEFA) [6], 30%. Further, the pest or weed control at 250 g/ha stood at 80% in the assay with Lolium perenne (LOLPE) [7] and 90% in assay [8].
For `CCc1ccc(-c2ccc(Cl)c(F)c2F)cc1C1=C(O)C(C)(C)CCC1=O` [Compound T16], the pest or weed control at 250 g/ha stood at 50% in assay [1]; 90% in the assay on Avena fatua (AVEFA) [2]; 90% in the assay on Lolium perenne (LOLPE) [3]; 100% in assay [4]; 30% in assay [5]; 20% in the assay with Avena fatua (AVEFA) [6]. In addition, the pest or weed control at 250 g/ha in the assay on Lolium perenne (LOLPE) [7] was 80%; in assay [8], 90%.
